According to patent US20100016232A1, “Treatment Of Inflammatory Diseases With Mammal Beta Defensins” (Novozymes A/S, priority 2008, published 2010):
Where no end group is shown, it is not given here.

Tests used:
[1] = tested on: IL-23, human CD14+ monocyte-derived dendritic cells; experiment: IL-23 in supernatants of human CD14+ monocyte-derived dendritic cells, ELISA; assay type: cell-based
Description: The DCs were prepared according to a modified protocol originally described by Romani et al. Briefly, peripheral blood mononuclear cells (PBMCs) were purified from buffy coats of healthy donors by centrifugation over a Ficoll-pague (GE-healthcare) gradient. Monocytes were isolated from PBMC by positive selection of CD14+ cells by magnetic beads (Dynal, Invitrogen) according to the manufacturer's instructions. The CD14+ monocytes were cultured in 6-well plates in RPMI/2% Human AB Serum recombinant human recombinant granulocyte-macrophage colony-stimulating factor (GM-CSF, 20 ng/ml) and IL-4 (20 ng/ml) (PeproTech) for 6 days, replenishing the medium/cytokines after 2 and 5 days.
Cell culture supernatants were collected and stored at −80° C. Amounts of IL-23 was measured by standard sandwich ELISA using commercially available antibodies and standards according to the manufacturer's protocols (eBioscience).

[2] = tested on: DSS-induced colitis in the mouse; experiment: 10-day DSS-induced colitis, colon histological score (Example 5); assay type: in vivo; conditions: day 10
From the text: (§1) Animals were divided into 5 experimental groups.
Their colons were removed and their length and weight measured after exclusion of the caecum.
Two sections (proximal and distal) of colon were taken from each animal and preserved in neutral buffered formalin for subsequent histological analysis (haematoxylin and eosin staining) according to the following scoring system:
Two sections (proximal and distal) of colon were taken from each animal, processed for histological analysis (haematoxylin and eosin staining) and scored by a blind observer according to the histological scoring system described above.

[3] = tested on: IL-1β and IL-8 and IL-6, dendritic cells; experiment: Cytokines from dendritic cells stimulated with a cytokine cocktail; assay type: cell-based, human; conditions: cytokine cocktail together with hBD2 vs cocktail alone, results not shown
From the text: Obviously no effect on TNF could be analyzed, due to stimulation with TNF-α (results not shown).

[4] = tested on: IL-1β secretion from PBMC; experiment: IL-1β secretion from PBMC, ELISA; assay type: cell-based, human
Description: Peripheral blood was drawn from healthy volunteers (with approval from the relevant ethical committee in Denmark). Heparinized blood was diluted 1/1 v/v with RPMI and were subjected to Ficoll density centrifugation within 2 h of drawing. Plasma was collected from the top from individual donors and was kept on ice until it was used at 2% in the culture medium (autologous culture medium). Isolated PBMC were resuspended in autologous culture medium and seeded in 96-well culture plates with 255.000 cells per well in a total of 200 μl. […] The concentrations used for stimulation were optimized on 3 different donors in initial experiments, for LPS two different concentrations were used to be sure to be on a cytokine level that is possible to modulate. In some experiments PBMC were treated with Dexamethason and Indomethacin alone and together with LPS or LTA as a control on downregulation of inflammatory cytokines. The supernatants were collected after incubation at 37° C. for 24 hours, and stored at −80° C. until cytokine measurement. Viability was measured by Alamar Blue (Biosource, DALL 1100) in all experiments and in some cases also by MTS (Promega) according to manufacturer's instruction and was in some experiments also judged by counting of the cells by a Nucleocounter.
Cytokine production in supernatants was measured by flow cytometry with a human inflammation cytometric bead array (CBA) according to manufacturer's instructions (BD) on a FACSarray flow cytometer. The following cytokines were measured: IL-8, IL-1β, IL-10, TNF, IL-12 p70, IL-6. In some experiments, cytokines were measured by ELISA kits from R&D systems (IL-10, TNF-α, IL-1β) according to the manufacturer' instruction.
In Tables 6, 7 and 8, supernatants from another donor were analysed for cytokines by ELISA instead of by a cytometric bead array by flowcytometry and here the same were observed, although the sensitivity of the assay is lower and the detection limit much higher and therefore the effects were not as significant.

[5] = tested on: DSS-induced colitis in the mouse; experiment: 10-day DSS-induced colitis, Disease Activity Index (Example 5); assay type: in vivo
Description: as §1
Colitis was induced in mice by supplementing their drinking water with DSS 2% for 7 days.
Daily clinical assessment of DSS-treated animals was carried out, with the calculation of a validated clinical Disease Activity Index (DAI) ranging from 0 to 4 according to the following parameters: stool consistency, presence or absence of rectal bleeding and weight loss:
Bodyweight loss was calculated as the percent difference between the original bodyweight (Day 1) and the actual bodyweight on each experimental day (2-10).
The appearance of diarrhoea is defined as mucus/faecal material adherent to anal fur. Rectal bleeding is defined as diarrhoea containing visible blood/mucus or gross rectal bleeding. The maximum score of the DAI each day is 12.

hBD2: human beta defensin 2, SEQ ID NO:2; produced recombinantly in E. coli (Example 1); hBD2 of Tables 16-18 was prepared by chemical synthesis (GIGDPVTCLKSGAICHPVFCPRRYKQIGTCGLPGTKCCKKP; ends and bridges not checked; cysteine pairing not given here; listed as Homo sapiens)
IL-23 ([1]; LPS (100 ng/ml) and IFN-γ (20 ng/ml), hBD2 1 μg/ml): 3833 pg/mL
IL-23 ([1]; LPS (100 ng/ml) and IFN-γ (20 ng/ml), hBD2 10 μg/ml): 3308 pg/mL
IL-23 ([1]; LPS (100 ng/ml) and IFN-γ (20 ng/ml), hBD2 30 μg/ml): 3042 pg/mL
IL-23 ([1]; LPS (100 ng/ml) and IFN-γ (20 ng/ml), hBD2 100 μg/ml): 2145 pg/mL
IL-23 ([1]; Unstimulated, hBD2 10 μg/ml): 451 pg/mL
Histology Score Distal Colon ([2]; 0.1 mg/kg i.v. daily): 3.67
Histology Score Distal Colon ([2]; 1 mg/kg i.v. daily): 4.13
Histology Score Distal Colon ([2]; 10 mg/kg i.v. daily): 4.78
IL-1β and IL-8 and IL-6 [3]: downregulating effect
IL-1β ([4]; LPS 0.6 ng/ml, hBD2 1 μg/ml): 0.237 ng/mL
IL-1β ([4]; LPS 0.6 ng/ml, hBD2 10 μg/ml): 0.268 ng/mL
IL-1β ([4]; LPS 0.6 ng/ml, hBD2 100 μg/ml): 0.275 ng/mL
IL-1β ([4]; LPS 20 ng/ml, hBD2 1 μg/ml): 0.638 ng/mL
IL-1β ([4]; LPS 20 ng/ml, hBD2 10 μg/ml): 0.354 ng/mL
IL-1β ([4]; LPS 20 ng/ml, hBD2 100 μg/ml): 0.395 ng/mL
IL-1β ([4]; LTA 1.25 μg/ml, hBD2 1 μg/ml): 0.224 ng/mL
IL-1β ([4]; LTA 1.25 μg/ml, hBD2 10 μg/ml): 0.193 ng/mL
IL-1β ([4]; LTA 1.25 μg/ml, hBD2 100 μg/ml): 0.281 ng/mL
DAI score ([5]; 0.1 mg/kg i.v. daily, Day 1): 0.00
DAI score ([5]; 0.1 mg/kg i.v. daily, Day 2): 0.20
DAI score ([5]; 0.1 mg/kg i.v. daily, Day 3): 0.80
DAI score ([5]; 0.1 mg/kg i.v. daily, Day 4): 2.90
DAI score ([5]; 0.1 mg/kg i.v. daily, Day 5): 2.80
DAI score ([5]; 0.1 mg/kg i.v. daily, Day 6): 3.20
DAI score ([5]; 1 mg/kg i.v. daily, Day 1): 0.00
DAI score ([5]; 1 mg/kg i.v. daily, Day 2): 0.00
DAI score ([5]; 1 mg/kg i.v. daily, Day 3): 0.22
DAI score ([5]; 1 mg/kg i.v. daily, Day 4): 2.22
DAI score ([5]; 1 mg/kg i.v. daily, Day 5): 2.44
DAI score ([5]; 1 mg/kg i.v. daily, Day 6): 2.89
DAI score ([5]; 1 mg/kg i.v. daily, Day 7): 2.22
DAI score ([5]; 1 mg/kg i.v. daily, Day 8): 3.67
DAI score ([5]; 1 mg/kg i.v. daily, Day 9): 5.22
DAI score ([5]; 10 mg/kg i.v. daily, Day 1): 0.00
DAI score ([5]; 10 mg/kg i.v. daily, Day 2): 0.60
DAI score ([5]; 10 mg/kg i.v. daily, Day 3): 1.00
DAI score ([5]; 10 mg/kg i.v. daily, Day 4): 3.67
DAI score ([5]; 10 mg/kg i.v. daily, Day 5): 3.11
DAI score ([5]; 10 mg/kg i.v. daily, Day 6): 3.22
DAI score ([5]; 10 mg/kg i.v. daily, Day 7): 2.11
DAI score ([5]; 10 mg/kg i.v. daily, Day 8): 4.11
DAI score ([5]; 10 mg/kg i.v. daily, Day 9): 6.78
DAI score ([5]; 10 mg/kg i.v. daily, Day 10): 7.33
